The source of these data is PubChem BioAssay (NCI).

Several values for one entry are separate records, joined by “and”; a condition that tells them apart may be missing. Equal values may be shown once.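 Interpolation was linear, between the two tested concentrations surrounding the appropriate level; five concentrations were tested over 48 hours in 96-well plates. GI50 marks 50% less growth. Definition used: TGI = concentration required for complete inhibition of growth.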 Where only a bound is given, the exact number is not on record here.

Common to all, as to assay: inhibition of tumour cell growth, NCI panel, 48 h
In assay [1] the test system is EKVX NSCLC.
Assay [2] relates to HCC-2998 colon.
For assay [3], the system named is MALME-3M melanoma.
Assay [4] concerns MDA-MB-231 breast.
The subject of assay [5] is NCI-H460 lung.
Assay [6] concerns SF-268 CNS.
For assay [7], the system named is SN12C renal.
Assay [8] deals with SNB-75 CNS.
In assay [9] the test system is UACC-257 melanoma.
Assay [10] deals with UACC-62 melanoma.

As for `Oc1ccc(Cc2cc(Cc3ccc(O)cc3)cc(Cc3ccc(O)cc3)c2)cc1`, the TGI in [1], in assay [2], in assay [3], in assay [4], in assay [5] and in assay [6] was more than 50 µM in each case. Besides, the TGI in assay [7], in [8], in assay [9] and in assay [10] was more than 50 µM throughout.

On to `COc1ccc(CN2C(=O)/C(=C\c3cc(OC)c(OC)c(OC)c3)c3ccccc32)cc1`, for which the GI50 in assay [1] is 2.99 µM; in [2], 1.78 µM; in [3], 0.562 µM; in assay [4] it was 3.34 µM; in assay [5], 2.08 µM; in [6], 2.65 µM. For the same compound, the GI50 in [7] was 3.04 µM; in assay [8] it was 4.08 µM; in assay [9] it was 2.15 µM; in assay [10], 1.6 µM. Further, the TGI in [1] was 55.1 µM; in assay [2] it was 3.31 µM; in assay [3], 3.3 µM; in [4], more than 100 µM; in assay [5], 4.09 µM; in assay [6] it was 7.93 µM. Further, the TGI was more than 100 µM in assay [7], more than 100 µM in [8], 6.67 µM in [9] and 3.51 µM in assay [10].

For `O=[N+]([O-])c1ccc2[nH]nc(OCc3ccccc3Cl)c2c1`, the TGI in assay [1], in assay [2], in assay [3], in assay [4], in assay [5] and in [6] was more than 100 µM each time. Further, the TGI was more than 100 µM in assay [7], more than 100 µM in assay [8], more than 100 µM in assay [9] and 88.8 µM in [10].

Turning to `CCCCCC1=CC(=O)C1(Cl)Cl`, the TGI was 49.6 µM in assay [1]; 27.7 µM in assay [2]; 27.4 µM in assay [3]; 31 µM in assay [4]; more than 61.2 µM in [5]; 55.5 µM in assay [6]. Also, the TGI was found to be 72 µM in assay [7], 30.4 µM in [8], 33.3 µM in [9] and 32.2 µM in assay [10].

For the compound `Nc1nccc(-c2c[nH]c3cc(Br)ccc23)n1`, the TGI in assay [1] is 9.15 µM; in assay [2] it was 64.9 µM; in [3], more than 100 µM; in [4], more than 100 µM; in [5], more than 100 µM; in [6], more than 100 µM. Besides, the TGI is 49.8 µM in assay [7], more than 100 µM in assay [8], 86.7 µM in assay [9] and 47.6 µM in assay [10].

Consider `c1ccc2c(c1)Cn1c-2nc2ccccc21`, for which the TGI in [1], in assay [2], in assay [3], in assay [4], in [5] and in assay [6] was more than 100 µM each time. The TGI in assay [7] was more than 100 µM; in assay [8], 73.3 µM; in assay [9], more than 100 µM; in [10], more than 100 µM.

`Nn1c(Nc2ccc(S(=O)(=O)Nc3ncccn3)cc2)nnc(/C=C/c2c(O)ccc3ccccc23)c1=O`: the TGI in assay [1] is 69.6 µM; in [2] it was 57.7 µM; in assay [3], 75.8 µM; in [4], 71 µM; in assay [5], 69.2 µM; in [6], more than 100 µM. Further, the TGI in [7] was more than 100 µM; in [8], 66.5 µM; in assay [9], 55.2 µM; in assay [10] it was 52.6 µM.

Regarding `C[C@]12CCC3C4=C(CCC3C1CCC2=O)C(=O)[C@H]1O[C@H]1C4=O` (stereo partly drawn), the TGI in assay [1] was found to be 27.7 µM; in [2], 3.3 µM; in assay [3] it was 37.5 µM; in assay [4], 3.64 µM; in [5], 23.9 µM; in assay [6], 5.32 µM. Besides, the TGI in assay [7] amounted to 7.71 µM; in assay [8], 8.14 µM; in [9] it was 34.1 µM; in [10] it was 9.34 µM.

Take `Cc1ccc(-c2cc(-c3ccco3)c(C#N)c(=S)n2C2OC(CO)C(O)C(O)C2O)cc1` (stereo not drawn): the TGI is more than 100 µM in assay [1]; more than 100 µM in [2]; more than 100 µM in assay [3]; 35.4 µM and 88.1 µM in assay [4]; more than 100 µM in [5]; more than 100 µM in assay [6]. Besides, the TGI was more than 100 µM in [7]; more than 100 µM in [8]; more than 100 µM in assay [9]; 13.3 µM and > 100 µM in assay [10]. Further, the GI50 in [4] is 8.83 µM and 24 µM; in [6] it was 44.8 µM; in [7], 20.6 µM and > 100 µM.

As to `COc1nncc2[nH]c(-c3ccccc3)cc12`, the TGI in assay [1], in assay [2], in [3], in assay [4], in assay [5] and in assay [6] was more than 100 µM each time. The TGI in assay [7], in assay [8], in assay [9] and in assay [10] was more than 100 µM throughout.

`C=C1CCN2CC[C@@H](OC(=O)/C(C)=C\C)[C@@H]12`: the TGI in [1], in assay [2], in assay [3], in assay [4], in [5] and in assay [6] was more than 100 µM throughout. Moreover, the TGI in assay [7], in assay [8], in [9] and in [10] was more than 100 µM each time.

For the compound `COc1ccc(-n2c(C)nc3ccc(NC(=S)Nc4ccccc4)cc3c2=O)cc1`, the TGI in [1], in assay [2], in assay [3], in assay [4], in assay [5] and in assay [6] was more than 100 µM throughout. The TGI in [7], in [8], in assay [9] and in assay [10] was more than 100 µM throughout.

As for `CN(C)CCNS(=O)(=O)c1ccc(N)cc1`, the TGI in assay [1], in [2], in assay [3], in assay [4], in assay [5] and in assay [6] was more than 100 µM each time. Also, the TGI in assay [7], in [8], in assay [9] and in [10] was more than 100 µM throughout.

In the case of `Cc1ccccc1OC(C)C(=O)NN1C(=O)CSC1c1ccccc1` (stereo not drawn), the TGI in [1], in assay [2], in assay [3], in assay [4], in [5] and in [6] was more than 100 µM throughout. Also, the TGI in assay [7], in assay [8], in assay [9] and in assay [10] was more than 100 µM in each case.

On to `CCOC(=O)N1CCN(Cc2cc(=O)n3ccc(C)cc3n2)CC1`, for which the TGI in [1], in assay [2], in assay [3], in assay [4], in assay [5] and in [6] was more than 100 µM in each case. For the same compound, the TGI in [7], in [8], in [9] and in [10] was more than 100 µM in each case.

On to `Cc1cc(C)nc(NS(=O)(=O)c2ccc(NC(=O)c3ccc4nc5ccccc5c(Nc5ccc(S(N)(=O)=O)cc5)c4c3)cc2)n1`, for which the TGI in assay [1], in [2], in [3], in assay [4], in [5] and in assay [6] was more than 100 µM in each case. The TGI in assay [7], in [8], in assay [9] and in [10] was more than 100 µM in each case.
